Test results published in the supplement of paper PMC10307832.

Key:
Assay in all cases: relative viability (nuclei count vs DMSO), 5 days (fraction); higher = more cells survive
Carfilzomib + Bortezomib = compound: CC(C)C[C@H](NC(=O)[C@H](CCc1ccccc1)NC(=O)CN1CCOCC1)C(=O)N[C@@H](Cc1ccccc1)C(=O)N[C@@H](CC(C)C)C(=O)[C@@]1(C)CO1 [Carfilzomib] + CC(C)C[C@H](NC(=O)[C@H](Cc1ccccc1)NC(=O)c1cnccn1)B(O)O [Bortezomib] (partner 0.002 µM)
How it was run: (§1)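 Relative viability equals treated-well nuclei counts divided by vehicle-well nuclei counts. Counts came from 4× images of lung cancer cell lines grown in 1536-well plates for 5 days after pin-tool dosing on the day after seeding. Dosing used one drug alone or a fixed anchor-drug dose plus five library-drug doses (not always all listed) in √10 steps, and values are medians of duplicate plates.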

Crizotinib + Pemetrexed = compound: C[C@@H](Oc1cc(-c2cnn(C3CCNCC3)c2)cnc1N)c1c(Cl)ccc(F)c1Cl [Crizotinib] + Nc1nc2[nH]cc(CCc3ccc(C(=O)N[C@@H](CCC(=O)O)C(=O)O)cc3)c2c(=O)[nH]1 [Pemetrexed] (partner 0.2 µM)
How it was run: as §1

Olaparib + Foretinib = compound: O=C(c1cc(Cc2n[nH]c(=O)c3ccccc23)ccc1F)N1CCN(C(=O)C2CC2)CC1 [Olaparib] + COc1cc2c(Oc3ccc(NC(=O)C4(C(=O)Nc5ccc(F)cc5)CC4)cc3F)ccnc2cc1OCCCN1CCOCC1 [Foretinib] (partner 0.25 µM)
How it was run: as §1

Olaparib + Decitabine = compound: O=C(c1cc(Cc2n[nH]c(=O)c3ccccc23)ccc1F)N1CCN(C(=O)C2CC2)CC1 [Olaparib] + Nc1ncn([C@H]2C[C@H](O)[C@@H](CO)O2)c(=O)n1 [Decitabine] (partner 2 µM)
How it was run: as §1

Cell Line	relative viability (Carfilzomib + Bortezomib; first compound 0.001 µM)	relative viability (Carfilzomib + Bortezomib; first compound 0.003162 µM)	relative viability (Carfilzomib + Bortezomib; first compound 0.01 µM)	relative viability (Carfilzomib + Bortezomib; first compound 0.03162 µM)	relative viability (Carfilzomib + Bortezomib; first compound 0.1 µM)	relative viability (Crizotinib + Pemetrexed; first compound 0.01 µM)	relative viability (Crizotinib + Pemetrexed; first compound 0.03162 µM)	relative viability (Crizotinib + Pemetrexed; first compound 0.1 µM)	relative viability (Crizotinib + Pemetrexed; first compound 1 µM)	relative viability (Olaparib + Foretinib; first compound 0.08 µM)	relative viability (Olaparib + Foretinib; first compound 0.253 µM)	relative viability (Olaparib + Foretinib; first compound 2.53 µM)	relative viability (Olaparib + Foretinib; first compound 8 µM)	relative viability (Olaparib + Decitabine; first compound 0.08 µM)	relative viability (Olaparib + Decitabine; first compound 0.253 µM)	relative viability (Olaparib + Decitabine; first compound 2.53 µM)	relative viability (Olaparib + Decitabine; first compound 8 µM)	relative viability (Crizotinib + Pemetrexed; first compound 0.3162 µM)
NCI-H1734	0.848	1.1	0.484	0.147	0.146	0.411	0.442	0.403	0.395	0.885	0.782	0.851	0.637	0.418	0.311	0.237	0.229	
NCI-H1755	0.929	1.02	0.685	0.282	0.221	0.373	0.44	0.382	0.408	0.922	0.898	0.868	0.787	0.666	0.621	0.577	0.562	0.445
NCI-H1915	0.906	0.849	1.03	0.142	0.0581	0.455	0.431	0.506	0.482	1.06	1.02	0.717	0.604	0.242	0.239	0.234	0.196	0.455
NCI-H1975	0.255	0.266	0.137	0.122	0.13	0.296	0.3	0.287	0.291	1.04	0.929	0.98	0.908	0.339	0.312	0.331	0.248	0.301
NCI-H1993	0.912	1.18	1.1	0.453	0.425	0.57	0.632	0.503	0.47	0.906	0.794	1.04	0.931	0.512	0.59	0.666	0.636	0.528
NCI-H2009	1.11	1.26	0.78	0.122	0.0487	1.02	1.05	0.974	0.989	1.35	1.16	1.17	1.06	0.391	0.336	0.337	0.32	0.957
NCI-H2023	0.951	1.07	1.01	0.184	0.0639	0.149	0.226	0.172	0.209	0.931	0.733	0.775	0.733	0.172	0.143	0.135	0.126	0.189
NCI-H2085	1.03	0.923	0.773	0.451	0.313	0.808	0.978	0.856	0.904	1.1	0.831	0.916	0.886	0.545	0.49	0.43	0.46	0.749
NCI-H2087	0.803	0.793	0.202	0.0909	0.101	0.725	0.724	0.553	0.723	1.08	0.921	0.949	0.736	0.249	0.189	0.262	0.167	0.702
NCI-H2126	1.11	1.12	1.1	0.945	0.554	0.616		0.68	0.724	1.06	1.15	1.36	1.18	0.614	0.544	0.541	0.542	0.659
NCI-H2347	0.611	0.89	0.698	0.361	0.268	0.387	0.441	0.446	0.416	0.902	0.945	0.786	0.977	0.644	0.558	0.531	0.516	0.457
NCI-H2405	0.926	1.01	1.06	0.15	0.202	0.875	1.09	1.04		1.11	1.01	0.946	0.956	0.681	0.55	0.458	0.486	0.993
NCI-H3122	1.04	0.996	1.05	0.855	0.814	0.192	0.196	0.195	0.192	0.895	0.946	0.873	0.781	0.385	0.351	0.259	0.256	0.182
PC-3 [JPC-3]	0.864	0.767	0.581	0.245	0.147	0.883	1.23	1.19	1.05	1.03	0.948	0.985	0.948	0.82		0.761	0.741	
PC-14	0.888	0.963	0.494	0.0957	0.0938	0.124	0.127	0.134	0.132	1.06	0.892	0.903	0.684	0.153	0.124	0.101	0.105	0.143
RERF-LC-KJ	0.994	1.05	0.926	0.47	0.258	0.475	0.459	0.461	0.517	0.922	0.797	1	0.919	0.703	0.637	0.558	0.451	0.473
SK-LU-1	0.878	1.19	0.797	0.195	0.237	0.887	0.911	0.815	0.922	0.91	0.657	0.748	0.526	0.476	0.484	0.504	0.452	1.02
SW 1573	0.986	0.959	0.546	0.114	0.0592		0.797	0.749	0.908	1.01	0.971	0.737	0.629	0.32	0.301	0.16	0.139	0.676
